# Test results taken from US20240308992A1 (Biopolar Youtang(Guangdong) Pharmaceutical Co., Ltd., priority 2021, published 2024).
# Biological target: T1, Drak2 (Homo sapiens, UniProt O94768)
# T1 sequence (O94768 1-372): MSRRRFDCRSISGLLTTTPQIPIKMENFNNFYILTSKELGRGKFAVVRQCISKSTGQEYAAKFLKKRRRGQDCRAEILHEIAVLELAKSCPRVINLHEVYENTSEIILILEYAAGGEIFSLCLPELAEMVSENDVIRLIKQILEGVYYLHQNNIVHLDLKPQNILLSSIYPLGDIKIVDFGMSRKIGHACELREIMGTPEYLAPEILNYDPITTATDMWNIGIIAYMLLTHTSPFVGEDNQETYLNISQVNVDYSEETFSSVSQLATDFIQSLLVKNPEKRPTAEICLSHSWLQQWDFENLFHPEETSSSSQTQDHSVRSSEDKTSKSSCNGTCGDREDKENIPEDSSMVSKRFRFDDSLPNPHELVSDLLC
# Experiment: Drak2 activity test, ADP-Glo kinase assay (Promega)
# Type: biochemical
# Details: inhibition of Drak2 kinase activity, 2 h room temperature, activity range classes, read-out: IC50_Drak2
row,Compound,IC50
1,"CN1CCC(C(=O)N2CCOc3cc(-c4cncc(-c5cc(NC(=O)CC6CC6)cs5)n4)ccc32)CC1 [Example E2, 2-cyclopropyl-N-(5-(6-(4-(1-methylpiperidin-4-carbonyl)-3,4-dihydro-2H-benzo[b][1,4]oxazin-7-yl)pyrazine-2-yl)thiophene-3-yl) acetamide]",11 to 100 nM
2,"COc1ccc(-c2cncc(-c3cc(NC(=O)CC4CC4)cs3)n2)cc1OC [Example A31, 2-cyclopropyl-N-(5-(6-(3,4-dimethoxyphenyl)pyrazin-2-yl)thiophen-3-yl)acetamide]",11 to 100 nM
3,"COc1cc(-c2cncc(-c3cc(NC(=O)CC4CC(F)(F)C4)cs3)n2)ccc1C(=O)N(C)C1CC2(C1)CN(C)C2 (stereo not shown) [Example 202, 4-[6-(4-{[2-(3,3-difluorocyclobutyl)acetyl]amino}thiophen-2-yl)pyrazin-2-yl]-2-methoxy-N-methyl-N-(2-methyl-2-azaspiro [3.3]hept-6-yl) benzamide]",11 to 100 nM
4,CCCCC(=O)Nc1csc(-c2cncc(-c3ccc(OCCN4CCSCC4)c(OC)c3)n2)c1 [Example 193],11 to 100 nM
5,"COc1cc(-c2cncc(-c3cc(NC(=O)CC4CC4)cs3)n2)ccc1CN1CCOCC1 [Example B34, 2-cyclopropyl-N-(5-(6-(3-methoxy-4-(morpholinomethyl)phenyl)pyrazin-2-yl)thiophen-3-yl)acetamide]",101 to 1000 nM
6,"CCCCC(=O)Nc1csc(-c2cncc(-c3ccc(C4=NOC(=O)C4)c(OC)c3)n2)c1 [Example A37, N-(5-(6-(3-methoxy-4-(5-oxo-4,5-dihydroisoxazol-3-yl)phenyl)pyrazin-2-yl)thiophen-3-yl)pentanamide]",101 to 1000 nM
7,"COc1ccc(-c2cncc(-c3cc(NC(=O)C4CCCC4)cs3)n2)cc1OC [Example A8, N-(5-(6-(3,4-dimethoxyphenyl)pyrazin-2-yl)thiophen-3-yl)cyclopentanecarboxamide]",101 to 1000 nM
8,"CN1CCC(C(=O)N2CCOc3cc(-c4cncc(-c5cc(NC(=O)CC6CCC6)cs5)n4)ccc32)CC1 [Example E1, 2-cyclobutyl-N-(5-(6-(4-(1-methylpiperidine-4-carbonyl)-3,4-dihydro-2H-benzo[b][1,4]oxazin-7-yl)pyrazin-2-yl)thiophen-3-yl)acetamide]",11 to 100 nM
9,"CCCCC(=O)Nc1csc(-c2cncc(-c3ccc(C(=O)Nc4nncs4)c(OC)c3)n2)c1 [Example B24, 2-methoxy-4-(6-(4-pentanamidothiophen-2-yl)pyrazin-2-yl)-N-(1,3,4-thiadiazol-2-yl)benzamide]",1000 to 10000 nM
10,"CCCCC(=O)Nc1csc(-c2cncc(-c3ccc(OC)c(C#N)c3)n2)c1 [Example A21, N-(5-(6-(3-cyano-4-methoxyphenyl)pyrazin-2-yl)thiophen-3-yl)pentanamide]",101 to 1000 nM
11,"COc1cc(-c2cncc(-c3cc(NC(=O)CC45CC(C4)C5)cs3)n2)ccc1C(=O)N1CCOCC1 [Example B45, 2-(bicyclo[1.1.1]pentan-1-yl)-N-(5-(6-(3-methoxy-4-(morpholine-4-carbonyl)phenyl)pyrazin-2-yl)thiophen-3-yl)acetamide]",11 to 100 nM
12,"CCCCC(=O)Nc1csc(-c2cncc(-c3ccc(CN4CCOCC4)c(OC)c3)n2)c1 [Example B30, N-(5-(6-(3-methoxy-4-(morpholinomethyl)phenyl)pyrazin-2-yl)thiophen-3-yl)pentanamide]",101 to 1000 nM
13,"COc1cc(-c2cncc(-c3cc(NC(=O)CC4CCC4)cs3)n2)ccc1C(=O)N1CCC(OC)CC1 [Example B49, 2-cyclobutyl-N-(5-(6-(3-methoxy-4-(4-methoxypiperidine-1-carbonyl)phenyl)pyrazin-2-yl)thiophen-3-yl)acetamide]",11 to 100 nM
14,"COc1cc(-c2cncc(-c3cc(NC(=O)CC4CCC4)cs3)n2)ccc1S(=O)(=O)N(C)C1CCN(C)CC1 [Example B104, 2-cyclobutyl-N-(5-(6-(3-methoxy-4-(N-methyl-N-(1-methylpiperidin-4-yl)sulfamoyl)phenyl)pyrazin-2-yl)thiophen-3-yl)acetamide]",11 to 100 nM
15,"COc1ccc(-c2cncc(-c3cc(NC(=O)c4ccccc4)cs3)n2)cc1OC [Example A10, N-(5-(6-(3,4-dimethoxyphenyl)pyrazin-2-yl)thiophen-3-yl)benzamide]",1000 to 10000 nM
16,"COc1ccc(-c2cncc(-c3cc(NC(=O)C4CCC4)cs3)n2)cc1C#N [Example A22, N-(5-(6-(3-cyano-4-methoxyphenyl)pyrazin-2-yl)thiophen-3-yl)cyclobutanecarboxamide]",101 to 1000 nM
17,"COc1cc(-c2cncc(-c3cc(NC(=O)CC4CC(O)C4)cs3)n2)ccc1C(=O)N(C)C1CC2(C1)CN(C)C2 (stereo not shown) [Example 205, 4-(6-(4-(2-(3-hydroxycyclobutyl)acetylamino)thiophen-2-yl)pyrazin-2-yl)-2-methoxy-N-methyl-N-(2-methyl-2-azaspiro [3.3]heptane-6-yl) benzamide]",11 to 100 nM

row,Compound,IC50
1,"CCCCC(=O)Nc1csc(-c2cncc(-c3ccc(OCCN4CCOCC4)c(OC)c3)n2)c1 [Example 179, N-{5-[6-(3-methoxy-4-{[2-(morpholin-4-yl)ethyl]oxy}phenyl)pyrazin-2-yl]thiophen-3-yl} pentanamide]",11 to 100 nM
2,"COc1cc(-c2cncc(-c3cc(NC(=O)CC4CCCCC4)cs3)n2)ccc1C(=O)Nc1nnnn1C [Example B28, 2-methoxy-4-(6-(4-(2-cyclohexylacetamido)thiophen-2-yl)pyrazin-2-yl)-N-(1-methyl-1H-tetrazol-5-yl)benzamide]",101 to 1000 nM
3,"COc1cc(-c2cncc(-c3cc(NC(=O)CC4CCC4)cs3)n2)ccc1C(=O)N(C)OC [Example B81, 4-(6-(4-(2-cyclobutylacetamido)thiophen-2-yl)pyrazin-2-yl)-N,2-dimethoxy-N-methylbenzamide]",11 to 100 nM
4,"CCCCC(=O)Nc1csc(-c2cncc(-c3ccc(CCO)s3)n2)c1 [Example 218, N-(5-{6-[5-(2-hydroxyethyl)thiophen-2-yl]pyrazin 2-yl}thiophen-3-yl) pentanamide]",11 to 100 nM
5,"CCCCCCc1csc(-c2cncc(-c3ccc(OC)c(OC)c3)n2)c1 [Example 188, 2-(3,4-Dimethoxyphenyl)-6-(4-hexylthiophen-2-yl) pyrazine]",1000 to 10000 nM
6,"COc1cc(-c2cncc(-c3cc(OCC[C@H](C)CN)cs3)n2)ccc1C(=O)N(C)C1CCN(C)CC1 [Example 200, 4-[6-(4-{[(3S)-4-amino-3-methylbutyl]oxy}thiophen-2-yl)pyrazin-2-yl]-2-methoxy-N-methyl-N-(1-methylhexahydropyridin-4-yl) benzamide]",11 to 100 nM
7,"CC(C)n1ccc2c(-c3cncc(-c4cc(NC(=O)CC5CCC5)cs4)n3)ccnc21 [Example 210, 2-Cyclobutyl-N-(5-{6-[1-(propyl-2-yl)pyrrolo [2,3-b]pyridin-4-yl]pyrazin-2-yl}thiophen-3-yl) acetamide]",101 to 1000 nM
8,COc1cc(-c2cncc(-c3cc(NC(=O)CC4CCC4)cs3)n2)ccc1O [Example 186],< 10 nM
9,"COc1ccc(-c2cncc(-c3cc(NC(=O)C4CCC4)cs3)n2)cc1OC [Example A7, N-(5-(6-(3,4-dimethoxyphenyl)pyrazin-2-yl)thiophen-3-yl)cyclobutanecarboxamide]",101 to 1000 nM
10,"COc1cc(-c2cncc(-c3nc(NC(=O)CC4CCC4)cs3)n2)ccc1C(=O)N(C)C1CCN(C)CC1 [Example 223, 4-(6-{4-[(2-cyclobutylacetyl)amino]-1,3-thiazole-2-yl}pyrazin-2-yl)-2-methoxy-N-methyl-N-(1-methylhexahydropyridin-4-yl) benzamide]",101 to 1000 nM
11,"CCCCC(=O)Nc1csc(-c2cncc(-c3ccc(C(=O)N(C)C4CC5(C4)CN(C)C5)c(OC)c3)n2)c1 [Example 199, 2-Methoxy-N-methyl-N-(2-methyl-2-azaspiro[3.3]heptane-6-yl)-4-(6-(4-pentamidothiophen-2-yl)pyrazin-2-yl) benzamide]",11 to 100 nM
12,"COc1cc(-c2cncc(-c3cc(NC(=O)CC4CCC4)cs3)n2)ccc1C(=O)Nc1nnnn1C [Example B26, 2-methoxy-4-(6-(4-(2-cyclobutylacetamido)thiophen-2-yl)pyrazin-2-yl)-N-(1-methyl-1H-tetrazol-5-yl)benzamide]",11 to 100 nM
13,"COc1cc(-c2cncc(-c3cc(NC(=O)CC4CCC4)cs3)n2)ccc1-c1ncc2c(n1)CCN(Cc1ccccc1)C2 [Example 208, N-(5-(6-(4-(6-benzyl-5,6,7,8-tetrahydropyrido [4,3-d]pyrimidin-2-yl)-3-methoxyphenyl)pyrazin-2-yl)thiophen-3-yl)-2-cyclobutyl Acetamide]",101 to 1000 nM
14,"CCS(=O)(=O)c1ccc(-c2cncc(-c3cc(NC(=O)CC4CCC4)cs3)n2)cc1OC [Example A46, 2-cyclobutyl-N-(5-(6-(4-(ethylsulfonyl)-3-methoxyphenyl)pyrazin-2-yl)thiophen-3-yl)acetamide]",101 to 1000 nM
15,"CCCCC(=O)Nc1csc(-c2cncc(-c3ccc(C(=O)N(C)C4CCN(c5ncccn5)CC4)c(OC)c3)n2)c1 [Example B72, 2-methoxy-N-methyl-4-(6-(4-pentanamidothiophen-2-yl)pyrazin-2-yl)-N-(1-(pyrimidin-2-yl)piperidin-4-yl)benzamide]",101 to 1000 nM
16,"CCCCC(=O)Nc1csc(-c2cncc(-c3ccc(C(=O)N(C)C4CCN(C5CC5)CC4)c(OC)c3)n2)c1 [Example B69, N-(1-cyclopropylpiperidin-4-yl)-2-methoxy-N-methyl-4-(6-(4-pentanamidothiophen-2-yl)pyrazin-2-yl)benzamide]",< 10 nM
17,"CCCCC(=O)Nc1csc(-c2cncc(-c3ccc(C(=O)OC)c(OC)c3)n2)c1 [Example B1, Methyl 2-methoxy-4-(6-(4-pentanamidothiophen-2-yl)pyrazin-2-yl)benzoate]",101 to 1000 nM
